Consider 23 compounds from PubChem BioAssay AID296 (DTP/NCI, 2004).

The experiment has as its system MX-1 breast xenograft, nude mice, tumor weight T/C. The experiment can be described thus: NCI In Vivo Anticancer Drug Screen. Data for tumor model Human Mammary Carcinoma MX-1 Xenograft (intrarenal inoculation) in NU/NU Swiss (nude) mice. To be noted: endpoint: mean tumor weight change, higher = larger tumour. In short, it runs like this: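 Read-out: treated (T) over vehicle control (C) ratio of survival or tumor size. Dosing in animals carrying the transplanted tumor.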
On the technique in general: In xenograft studies the graft and the host belong to different species.

Where [1] appears, read: dose: 25.0 mg/kg/injection, schedule: Q04DX003 (sc), vehicle: saline.
Where [2] appears, read: dose: 50.0 mg/kg/injection, schedule: Q04DX003 (sc), vehicle: saline.
Where [3] appears, read: dose: 600.0 mg/kg/injection, schedule: Q04DX003 (sc), vehicle: saline with Tween-80.
The mark [4] stands for this setting: dose: 1200.0 mg/kg/injection, schedule: Q04DX003 (sc), vehicle: saline with Tween-80.

“And” between values parts separate entries of the source, which are not always exact repeats. Identical values can stand only once. Records with an inconclusive call do not appear.

On to `CN(C)c1ccc2c(N(C)C)cc(N(C)C)nc2c1`, for which the T/C reads like this: (dose: 18.75 mg/kg/injection, schedule: Q04DX003 (sc), vehicle: Klucel (hydroxypropylcellulose) (HPC)) 78 % of control; (dose: 37.5 mg/kg/injection, schedule: Q04DX003 (sc), vehicle: Klucel (hydroxypropylcellulose) (HPC)) 84 % of control; (dose: 75.0 mg/kg/injection, schedule: Q04DX003 (sc), vehicle: Klucel (hydroxypropylcellulose) (HPC)) 82 % of control.
Consider `Cc1cc(N(CCOS(C)(=O)=O)CCOS(C)(=O)=O)ccc1C=Nc1ccc(-c2nc(Cc3ccccc3)sc2C)cc1`, for which the T/C by setting is: (dose: 50.0 mg/kg/injection, schedule: Q01DX010 (sc), vehicle: Klucel (hydroxypropylcellulose) (HPC)) -79 % of control; (dose: 100.0 mg/kg/injection, schedule: Q01DX010 (sc), vehicle: Klucel (hydroxypropylcellulose) (HPC)) -88 % of control; (dose: 200.0 mg/kg/injection, schedule: Q01DX010 (sc), vehicle: Klucel (hydroxypropylcellulose) (HPC)) -87 % of control.
On to `COc1ccc(-c2csc(=[N+]3CCCCC3)s2)cc1`, for which the T/C is 89 % of control (dose: 3.12 mg/kg/injection, schedule: Q04DX003 (sc), vehicle: water); 85 % of control (dose: 6.25 mg/kg/injection, schedule: Q04DX003 (sc), vehicle: water); 89 % of control (dose: 12.5 mg/kg/injection, schedule: Q04DX003 (sc), vehicle: water).
Turning to `CCCCCC(O)C1C(=O)OC(C)C(O)/C=C/C=C/C=C/C=C\C=C(\C)C(O)CC(O)CC(O)CC(O)CC(O)CC(O)CC1O` (stereo not drawn), the T/C (dose: 300.0 mg/kg/injection, schedule: Q04DX003 (sc), vehicle: distilled water + alcohol) is 84 % of control; the T/C (dose: 600.0 mg/kg/injection, schedule: Q04DX003 (sc), vehicle: distilled water + alcohol) was 107 % of control; the T/C (dose: 1200.0 mg/kg/injection, schedule: Q04DX003 (sc), vehicle: distilled water + alcohol) is 69 % of control.
As for `COC1=C(N)C(=O)c2nc(-c3nc(C(=O)O)c(C)c(-c4ccc(OC)c(OC)c4O)c3N)ccc2C1=O`, the T/C (dose: 0.13 mg/kg/injection, schedule: Q01DX010 (sc), vehicle: saline) was 15 % of control and 18 % of control; the T/C (dose: 0.5 mg/kg/injection, schedule: Q01DX010 (sc), vehicle: saline) is -77 % of control and -75 % of control.
Consider `CC(=O)OCC1OC(n2cc(CBr)nn2)C(OC(C)=O)C(OC(C)=O)C1OC(C)=O` (stereo not drawn), for which the T/C was 106 % of control (dose: 12.5 mg/kg/injection, schedule: Q01DX010 (sc), vehicle: saline with Tween-80); 117 % of control (dose: 25.0 mg/kg/injection, schedule: Q01DX010 (sc), vehicle: saline with Tween-80); 117 % of control (dose: 50.0 mg/kg/injection, schedule: Q01DX010 (sc), vehicle: saline with Tween-80).
Turning to `[O-][n+]1c(CN2CCCCC2)nc2cccc3c2c1-c1ccccc1-3`, the T/C is, setting by setting: (dose: 300.0 mg/kg/injection, schedule: Q04DX003 (sc), vehicle: Klucel (hydroxypropylcellulose) (HPC)) 94 % of control; (dose: 600.0 mg/kg/injection, schedule: Q04DX003 (sc), vehicle: Klucel (hydroxypropylcellulose) (HPC)) 102 % of control; (dose: 1200.0 mg/kg/injection, schedule: Q04DX003 (sc), vehicle: Klucel (hydroxypropylcellulose) (HPC)) 105 % of control; (dose: 2400.0 mg/kg/injection, schedule: Q04DX003 (sc), vehicle: Klucel (hydroxypropylcellulose) (HPC)) 70 % of control.
On to `COC12[C@@H]3N[C@@H]3CN1C1=C(C(=O)C(NCCSSCCNC3=C(C)C(=O)C4=C(C3=O)C(COC(N)=O)[C@]3(OC)C5N[C@@H]5CN43)=C(C)C1=O)[C@@H]2COC(N)=O` (stereo partly drawn), for which the T/C is, setting by setting: (dose: 3.12 mg/kg/injection, schedule: Q04DX003 (ip), vehicle: DMSO) 17 % of control; (dose: 12.5 mg/kg/injection, schedule: Q04DX003 (ip), vehicle: DMSO) 14 % of control; (dose: 25.0 mg/kg/injection, schedule: Q04DX003 (ip), vehicle: DMSO) -1 % of control.
For `COc1ccc(CC2C(=O)NC(C)C(=O)N(C)C3C(=O)N(C)C(Cc4ccc(O)c(c4)Oc4ccc(cc4)C3O)C(=O)NC(C)C(=O)NC(C)C(=O)N2C)cc1` (stereo not drawn), the T/C is 78 % of control (dose: 0.5 mg/kg/injection, schedule: Q01DX010 (sc), vehicle: saline with Tween-80); 51 % of control (dose: 1.0 mg/kg/injection, schedule: Q01DX010 (sc), vehicle: saline with Tween-80); 34 % of control (dose: 2.0 mg/kg/injection, schedule: Q01DX010 (sc), vehicle: saline with Tween-80).
On to `c1cc2n(n1)CCN2`, for which the T/C (dose: 50.0 mg/kg/injection, schedule: Q01DX010 (sc), vehicle: saline) is 75 % of control and 77 % of control.
On to `Nc1ccc(Cl)cc1N`, for which the T/C was 116 % of control (dose: 450.0 mg/kg/injection, schedule: Q04DX003 (sc), vehicle: saline with Tween-80); 73 % of control (dose: 900.0 mg/kg/injection, schedule: Q04DX003 (sc), vehicle: saline with Tween-80); 71 % of control (dose: 1800.0 mg/kg/injection, schedule: Q04DX003 (sc), vehicle: saline with Tween-80).
On to `COc1cc2c(cc1O)N=C[C@@H]1CCC(O)N1C2=O` (mixture of isomers), for which the T/C is 295 % of control (dose: 1.0 mg/kg/injection, schedule: Q01DX010 (sc), vehicle: saline); 197 % of control (dose: 2.0 mg/kg/injection, schedule: Q01DX010 (sc), vehicle: saline); 214 % of control (dose: 4.0 mg/kg/injection, schedule: Q01DX010 (sc), vehicle: saline); 187 % of control (dose: 8.0 mg/kg/injection, schedule: Q01DX010 (sc), vehicle: saline).
As to `Clc1ccc2nnnn2n1`, the T/C by setting is: (dose: 100.0 mg/kg/injection, schedule: Q04DX003 (sc), vehicle: saline with Tween-80) 173 % of control; (dose: 200.0 mg/kg/injection, schedule: Q04DX003 (sc), vehicle: saline with Tween-80) 95 % of control.
Consider `COC1N(C2CC(O)C(CO)O2)C(=O)NC(=O)C1(F)Br` (stereo not drawn), for which the T/C (dose: 12.5 mg/kg/injection, schedule: Q01DX010 (sc), vehicle: saline) is 117 % of control.
Turning to `CC(=O)C(O)N1C(=O)C=CC1=O` (stereo not drawn), the T/C reads like this: (dose: 2.5 mg/kg/injection, schedule: Q01DX010 (sc), vehicle: saline) 157 % of control; (dose: 5.0 mg/kg/injection, schedule: Q01DX010 (sc), vehicle: saline) 117 % of control; (dose: 10.0 mg/kg/injection, schedule: Q01DX010 (sc), vehicle: saline) 159 % of control.
Take `C/C(=N\N=C(/[Se])N1CC2CCC(CC2)C1)c1ccccn1`: the T/C runs as follows: (dose: 25.0 mg/kg/injection, schedule: Q04DX003 (sc), vehicle: Klucel (hydroxypropylcellulose) (HPC)) 106 % of control; (dose: 50.0 mg/kg/injection, schedule: Q04DX003 (sc), vehicle: Klucel (hydroxypropylcellulose) (HPC)) 110 % of control.
In the case of `CCN=C=NCCCN(C)C`, the T/C was 112 % of control under setting [1] and 76 % of control under setting [2].
Regarding `OCCN1CCN(CC/C=C2/c3ccccc3Sc3ccc(Cl)cc32)CC1`, the T/C (dose: 12.5 mg/kg/injection, schedule: Q04DX003 (sc), vehicle: saline) was 115 % of control; the T/C under setting [1] was 47 % of control; the T/C under setting [2] is 44 % of control and 51 % of control.
On to `Nc1n[n+](-c2ccc(Cl)cc2)no1`, for which the T/C reads like this: (dose: 25.0 mg/kg/injection, schedule: Q04DX003 (sc), vehicle: water) 93 % of control; (dose: 50.0 mg/kg/injection, schedule: Q04DX003 (sc), vehicle: water) 102 % of control.
Take `CCCCCCCC(=O)[O][Hg][CH2]C1COC([CH2][Hg][O]C(=O)CCCCCCC)CO1` (stereo not drawn): the T/C runs as follows: (dose: 300.0 mg/kg/injection, schedule: Q04DX003 (sc), vehicle: saline with Tween-80) 58 % of control; under setting [3], 70 % of control; under setting [4], 50 % of control; (dose: 2400.0 mg/kg/injection, schedule: Q04DX003 (sc), vehicle: saline with Tween-80) 36 % of control.
For `Oc1ccccc1C=NCCC[N-]CCCN=Cc1ccccc1O.[Co]`, the T/C was 85 % of control (dose: 25.0 mg/kg/injection, schedule: Q01DX010 (sc), vehicle: suspension in saline); 93 % of control (dose: 50.0 mg/kg/injection, schedule: Q01DX010 (sc), vehicle: suspension in saline); 40 % of control (dose: 100.0 mg/kg/injection, schedule: Q01DX010 (sc), vehicle: suspension in saline); 31 % of control (dose: 200.0 mg/kg/injection, schedule: Q01DX010 (sc), vehicle: suspension in saline).
`Nc1ncnc2c1ncn2C1C=C(CO)C(O)C1O` (stereo not drawn): the T/C was 88 % of control (dose: 3.75 mg/kg/injection, schedule: Q04DX003 (sc), vehicle: saline); 75 % of control (dose: 7.5 mg/kg/injection, schedule: Q04DX003 (sc), vehicle: saline); 64 % of control (dose: 15.0 mg/kg/injection, schedule: Q04DX003 (sc), vehicle: saline).
For `NC(=S)N/N=C\c1ncccc1OCc1cccc(N)c1`, the T/C was 75 % of control under setting [3] and 152 % of control under setting [4].
